Test [1] has as its system DGAT. In words: Assay for inhibitory effect on DGAT in cell (intracellular triglyceride production from [14C]acetate in HepG2 cells). The class given is cell-based, human. The conditions noted are these: for Production Yield of Triglyceride (%): final level 10 μM, DMSO control given as 100. Here is the method: The effect of the benzazole derivatives of Chemical Formula 1 in accordance with the present invention on DGAT was examined with HepG2 cells, hepatic cells derived from the human liver, as follows.
HepG2 cells, purchased from ATCC, were cultured in Eagle's minimum essential medium (MEM), 2 mM L-glutamine, with Earle's balanced salt solution (BSS) adjusted to contain, 1.5 g/L sodium bicarbonate, 0.1 mM non-essential amino acids and 1 mM sodium pyruvate, supplemented with 10% fetal bovine serum (FBS) and 1% antibiotics (100 U/ml penicillin and 100 µg/ml streptomycin) at 37° C. in a 5% CO2 incubator.
Intracellular DGAT activity was represented by the amount of triglycerides produced in the cultured HepG2 cells while the compounds (4, 8, 10, 22, 24, 25, 26, 39 and 31) of Chemical Formula 1 were assayed for inhibitory activity against DGAT by measuring the change in intracellular triglyceride production after the addition thereof.
Cells were plated at a density of 1×10^6 cell/ml per well into 24-well plates and incubated for 24 hours. Then, the medium was exchanged with FBS-free MEM and pre-treated with samples for 1 hour. Thereafter, 0.2 mCi of [^14C]acetate (Amersham) was added as a substrate to the cells, followed by incubation for 1 hour. The production of triglyceride was catalyzed by DGAT so that DGAT activity was determined by the amount of the triglyceride product, which could be measured by radioactivity. For use, the samples were dissolved in dimethyl sulfoxide (DMSO). In a control, triglycerides were synthesized using DMSO without any sample, with the production yield thereof given as 100.
The amount of the glyceride products synthesized was determined as follows. After completion of synthesis, the cells were suspended in PBS (phosphate-buffer-saline) to remove the substrate [^14C]acetate, whether unabsorbed into the cells or remaining unreacted, and total lipids, including triglycerides, were extracted twice for 30 min with 0.5 ml of an extraction solvent mixture (hexane:isopropanol=3:2, v:v). 1 ml of the extract was concentrated with nitrogen gas.
The total lipid residue thus formed was dissolved in an organic solvent mixture (chloroform:methanol=2:1) and loaded dropwise onto a thin layer chromatography plate (TLC; silica gel 60F254, 0.5 mm, Merck) using a mixture of 80:20:1 hexane:diethylether:acetic acid (v:v:v) as a developing solvent. After the separation of triglycerides (Rf value: 0.4) on TLC, the plate was brought into contact with an autoradiographic film for three hours, followed by image analysis (BAS-1500, Fuji Photo Film Co. Ltd.) to determine the [^14C] radioactivity of the triglycerides. The cells left after the extraction were suspended in 0.3 ml of a 0.1 N sodium hydroxide solution to measure the cellular protein concentration thereof.
The empirical values were obtained by dividing triglyceride radioactivity by protein level, with correction for experimental errors between test groups.

Test [2] relates to DGAT. In words: Assay for inhibitory activity against DGAT ([14C]triacylglycerol formation, rat microsomal protein). As to conditions: rat microsomal protein as enzyme source. The class given is biochemical. An excerpt:
The derivatives of Chemical Formula 1 in accordance with the present invention are found to inhibit the enzymatic activity of DGAT at a dose-dependent manner (refer to Table 2 and FIG. 1) as measured in a test in which [^14C]triacylglycerol was quantitatively analyzed after enzymatic reaction between 1,2-diacylglycerol and [^14C]palmitoyl-CoA, with microsomal proteins from rats serving as an enzyme source (refer to Example 1).
After enzymatic reaction between two substrates 1,2-diacylglycerol (Sigma, D0138) and [^14C]palmitoyl-CoA (Amersham, CFA583) with the microsomal protein of rat serving as an enzyme source in accordance with Coleman et al, Methods Enzymol., 98-103, 1992, the resulting product [^14C] triacylglycerol was measured for radioactivity. In detail, to a reaction buffer (175 mM Tris-HCl, pH 8.0, 20 μl bovine serum albumin (10 mg/ml), 100 mM MgCl2, 30 μM [^14C] palmitoyl-CoA (0.02 μCi, Amersham) and 200 μM 1,2-dioleoyl glycerol) was added 10 μl of a solution of the samples in dimethylsulfoxide (DMSO) and then 100˜200 μl of an isolated microsomal protein, followed by reaction at 25° C. for 10 min. The reaction was terminated with 1.5 ml of a mixture of 80:20:2 2-propanol:heptane:water (v:v:v). Thereafter, the [^14C] triacylglycerol thus formed was separated. In this regard, 1 ml of heptane and 0.5 ml of distilled water were added to the reaction mixture, which was then shaken. 1 ml of the supernatant thus formed was mixed with 2 ml of an alkaline ethanol solution (ethanol:0.5 N sodium hydroxide:water=50:10:40, v:v:v), followed by shaking. After being taken, 0.65 ml of the supernatant thus formed was measured for radioactivity using an LSC (liquid scintillation counter). The inhibitory activity against DGAT was calculated according to the following Mathematical Formula 1. The inhibitory effects of the benzazole derivatives on DGAT are summarized in Table 2, below while % DGAT inhibition is plotted against doses of compound 22 and 31 in FIG. 1.
T: Cpm of a test group in which a sample was added to an enzymatic buffer,
C: Cpm of a control in which no samples were added to an enzymatic buffer,
B: Cpm of a control in which a sample was added in the absence of any enzyme source.

Test [3] has as its system ICR mice fed a high-fat diet. The experiment in a line: In vivo assay for anti-obesity activity in mice fed a high-fat diet. On the set-up: species or system mouse. The conditions noted are these: high-fat diet. Here is the method: Also, the derivatives of Chemical Formula 1 were tested for resistance to obesity by iterative oral administration at a dose of 10 mg/kg into ICR male mice (refer to Example 3). […] When they were administered, the levels of total triglycerides, total cholesterols, and low density lipoprotein (LDL)-cholesterol in the blood recovered to almost normal levels, with a significant increase observed in the level of high density lipoprotein (HDL)-cholesterol in the blood (refer to Tables 6 and 7 and FIGS. 3 and 4).
In order to verify the anti-obesity activity of the benzaldehyde derivatives of Chemical Formula 1 in accordance with the present invention, Compounds 22 and 31 were administered repetitively into rodents as follows.
The experimental animals were 6 week old ICR mice which were purchased from Japan SLC, Inc. via Central Lab. Animal Inc. Korea. They were acclimated to a new environment for one week before use, and fed with a foodstuff commercially available from Deyts, U.S.A. They were bred in an animal lab set at a temperature of 23±3° C. and RH 50±10% under light of 150˜300 Lux for a period of 12 hours (6 a.m.˜6 p.m.) with ventilation 10-20 times/hour. All of the 12 mice used were male, and were organized into two groups of 6. The test group was orally administered once a day at 4 p.m. with 10 mg/kg of the compound (Chemical Formula 1) in the form of a solution in biological saline for 35 days while the control was administered with biological saline only. Xenical, a commercially available lipase inhibitor, was administered orally at a dose of 10 mg/kg once a day as a positive control drug.
The animals were measured for body weight every week and sacrificed on Day 35, after which blood from the heart was sampled. Abdominal fat, epididymal fat, retroperitoneal fat and the liver were excised and weighed. Blood samples were assayed for total triglyceride, total cholesterol, HDL-cholesterol and LDL-cholesterol using respective test kits, all commercially available from Asan Pharmaceutical Co. Ltd., Korea.
For evidence of anti-obesity activity, compounds 22 and 31 were orally administered at regular intervals at a dose of 10 mg/kg into ICR male mice for a predetermined period of time with the concurrent provision of conditional diets thereto. Anatomized abdomens of the animals are given in the photographs of FIG. 2.

[4] abbreviates: Day 35, 10 mg/kg oral, Mean ± SD.
[5] abbreviates: blood, Day 35, 10 mg/kg oral, Mean ± SD.

Turning to `COC(=O)c1ccc2[nH]c(COc3ccc(C45CC6CC(CC(C6)C4)C5)cc3)nc2c1` [Cpd. 4, 2-(4-adamantan-1-yl-phenoxymethyl)-1H-benzoimidazole-5-carboxylic acid methyl ester], the “Production Yield of Triglyceride (%)” value in the test with DGAT [1] was 72.2 ± 7.5%. In the test on DGAT [2], the “DGAT (% inhibition in 25 μM)” value amounted to 60.43%.
The like results for `COC(=O)c1ccc2[nH]c(COc3ccc(C(C)(C)C)cc3C(C)(C)C)nc2c1` [Cpd. 8, 2-(2,4-tert-butyl-phenoxymethyl)-1H-benzoimidazole-5-carboxylic acid methyl ester] were, in that order, 88.5 ± 5.8% and 37.36%.
On the same counts, the results for `O=C(NCCN1CCCCC1)c1ccc2oc(COc3ccc(C45CC6CC(CC(C6)C4)C5)cc3)nc2c1` [Cpd. 24, 2-(4-adamantan-1-yl-phenoxymethyl)-benzoxazole-5-carboxylic acid (2-piperidin-1-yl-ethyl)-amide] are 78.5 ± 6.2% and 52.84%.
As for `O=C(NCCCN1CCOCC1)c1ccc2oc(COc3ccc(C45CC6CC(CC(C6)C4)C5)cc3)nc2c1` [Cpd. 25, 2-(4-adamantan-1-yl-phenoxymethyl)-benzoxazole-5-carboxylic acid (3-morpholin-4-yl-propyl)-amide], the “Production Yield of Triglyceride (%)” value in the test on DGAT [1] amounted to 80.2 ± 7.8%. For the same compound, the “DGAT (% inhibition in 25 μM)” value in the test with DGAT [2] is on record as 54.08%.
As for `O=C(NCc1ccco1)c1ccc2oc(COc3ccc(Cl)cc3Cl)nc2c1` [Cpd. 26, 2-(2,4-dichloro-phenoxymethyl)-benzoxazole-5-carboxylic acid (furan-2-ylmethyl)-amide], in the test on DGAT [1], the “Production Yield of Triglyceride (%)” value amounted to 91.5 ± 5.2%. For the same compound, the “DGAT (% inhibition in 25 μM)” value with DGAT [2] was found to be 19.75%.
`CN(C)C(=O)c1ccc2nc(COc3ccc(C45CC6CC(CC(C6)C4)C5)cc3)[nH]c2c1` [Cpd. 30, 2-(4-adamantan-1-yl-phenoxymethyl)-3H-benzoimidazole-5-carboxylic acid dimethylamide]: in the test with DGAT [1], the “Production Yield of Triglyceride (%)” value is reported as 87.2 ± 7.4%. Also, in the test on DGAT [2], the “DGAT (% inhibition in 5 μM)” value amounted to 8.0% and the “DGAT (% inhibition in 25 μM)” value was 41.8%.
Consider `O=C(NCc1ccco1)c1ccc2[nH]c(COc3ccc(C45CC6CC(CC(C6)C4)C5)cc3)nc2c1` [Cpd. 31, 2-(4-adamantan-1-yl-phenoxymethyl)-1H-benzoimidazole-5-carboxylic acid (furan-2-ylmethyl)-amide], for which, in test [3] (setting [4]), the “(Tissue Weight/Body Weight) × 100 Abdominal Fat + Epididymal Fat” value came out at 3.16 ± 0.84, the “(Tissue Weight/Body Weight) × 100 Liver” value was determined as 4.48 ± 0.33, the “(Tissue Weight/Body Weight) × 100 Retroperitoneal Fat” value is 0.94 ± 0.24 and the “(Tissue Weight/Body Weight) × 100 Total Fat” value was 4.1 ± 1.03. For the same compound, in test [3] (setting [5]), the “HDL-Cholesterol” value worked out at 21.22 ± 2.19 mg/dL, the “LDL-Cholesterol” value worked out at 43.62 ± 10.06 mg/dL, the “Total Cholesterol” value was 73.19 ± 10.97 mg/dL and the “Total Triglyceride” value turned out to be 41.79 ± 9.26 mg/dL. In addition, the “inhibition of body weight gain” value in test [3] (10 mg/kg oral once a day for 35 days) was 73%. Moreover, the “Body Weight (g) (Mean ± SD) Week 0” value in test [3] (10 mg/kg oral once a day, Week 0) came to 25.08 ± 0.99 g. In test [3] (10 mg/kg oral once a day, Week 1), the “Body Weight (g) (Mean ± SD) Week 1” value came to 35.1 ± 1.99 g. Moreover, the “Body Weight (g) (Mean ± SD) Week 2” value in test [3] (10 mg/kg oral once a day, Week 2) was found to be 38.93 ± 2.33 g. Besides, the “Body Weight (g) (Mean ± SD) Week 3” value in test [3] (10 mg/kg oral once a day, Week 3) turned out to be 40.75 ± 1.75 g. Further, the “Body Weight (g) (Mean ± SD) Week 4” value in test [3] (10 mg/kg oral once a day, Week 4) is on record as 42.31 ± 1.57 g. Also, the “Body Weight (g) (Mean ± SD) Week 5” value in test [3] (10 mg/kg oral once a day, Week 5) was found to be 43.22 ± 1.41 g. Moreover, the “inhibition of the biosynthesis of triglycerides” value in the test with DGAT [1] (10 μM) was 42.2%. In addition, the “Production Yield of Triglyceride (%)” value in the test with DGAT [1] was found to be 57.8 ± 5.3%. Besides, in the test on DGAT [2], the “DGAT (% inhibition in 5 μM)” value was 62.5% and the “DGAT (% inhibition in 25 μM)” value was 85.4%.
In the case of `O=C(NCCCn1ccnc1)c1ccc2[nH]c(COc3ccc(C45CC6CC(CC(C6)C4)C5)cc3)nc2c1` [compound 33, 2-(4-adamantan-1-yl-phenoxymethyl)-1H-benzoimidazole-5-carboxylic acid (3-imidazol-1-yl-propyl)-amide], the “DGAT (% inhibition in 25 μM)” value with DGAT [2] stood at 16.99%.
In the case of `NNC(=O)c1ccc2[nH]c(COc3ccc(Cl)cc3Cl)nc2c1` [compound 34, 2-(2,4-dichloro-phenoxymethyl)-1H-benzoimidazole-5-carboxylic acid hydrazide], the “DGAT (% inhibition in 25 μM)” value in the test with DGAT [2] worked out at 6.74%.
The same measure, in the same setting: as for `O=C(NCc1ccco1)c1ccc2nc(COc3ccc(Cl)cc3Cl)[nH]c2c1` [compound 35, 2-(2,4-dichloro-phenoxymethyl)-3H-benzoimidazole-5-carboxylic acid (furan-2-ylmethyl)-amide], the figure is 28.63%.

(Values after US8304448B2, “Method for the treatment of metabolic disorder containing benzazole derivatives as an active ingredient” (Korea Research Institute of Bioscience and Biotechnology, priority 2006, dated 2012).)
